The values below come from patent EP4667463A1, “DOMIDE MOLECULAR GLUE DERIVATIVE AND USE THEREOF” (CSPC Megalith Biopharmaceutical Co., Ltd., priority 2023, dated 2024).

Holding throughout (experiment): In vitro anti-tumor activity of molecular glue compounds, CellTiter-Lumi cell viability assay
Type in all cases: cell-based

Experiment [1] deals with NCI-H929. The following applies: Homo sapiens; NCI-H929 cells, 96 h incubation; read-out: Cell inhibitory activity (IC50 values) NCI-H929. The method, then: (§1) Different tumor cells were all commercially available and used for evaluating the anti-tumor inhibitory activity of the compounds of the present disclosure. Various tumor cells were cultured until the cell confluency reached 80%-90%, with cell viability above 90% as determined by trypan blue exclusion. Then, the cells were plated. Specifically, after cell density optimization, 100 µL of each of the cell suspensions of HL-60 and SK-BR-3 cells (cell density: 3000 cells/well), Romas cells (cell density: 6000 cells/well), NCI-H929 cells (cell density: 4000 cells/well), and NCI-H82 cells (cell density: 5000 cells/well) was plated in a BeyoGold™ ultra-low attachment black clear-bottom 96-well plate (Cat. No.: FULA965-24pcs), and the plate was incubated overnight. The next day, after the adherent cells were adhered to the wall and suspension cells requiring aggregation were aggregated, 50 µL of culture medium was aspirated from each well of the 96-well plate. Then, the compounds diluted with the corresponding culture media were added. Specifically, the compounds were serially diluted at a 5-fold gradient starting from the highest concentration of 1 µM, with a final DMSO concentration of 1%o, and the test compounds were then added to the cell culture plate. The plate was incubated in an incubator at 37 °C with 5% carbon dioxide for 96 h. Before measurement, the CellTiter-Lumi™ luminescent cell viability assay reagent was equilibrated to room temperature in the dark. Then, 50 µL of the CellTiter-Lumi™ (Cat. No.: C0065XL) cell viability assay reagent was added to each well of the 96-well plate. The plate was shaken in the dark on a shaker at 300 rpm for 10 min to ensure complete cell lysis. After the reaction was completed, the luminescence was measured on a multi-mode microplate reader. The cell inhibition rate was determined according to the luminescence. Then, a cell viability curve was generated by Graphpad Prism 8.0, and the IC50 values were calculated. The compounds of the present disclosure were tested for activity by the method described above. Table 1. Cell inhibitory activity (IC50 values)

Experiment [2] deals with Romas. The following applies: Romas cells, 96 h incubation; read-out: Cell inhibitory activity (IC50 values) Romas. Here is the method:
as §1

Experiment [3] concerns SK-BR-3. The following applies: Homo sapiens; SK-BR-3 cells, 96 h incubation; read-out: Cell inhibitory activity (IC50 values) SK-BR-3. Here is the method:
as §1

Experiment [4] concerns NCI-H82. To be noted: Homo sapiens; NCI-H82 cells, 96 h incubation; read-out: Cell inhibitory activity (IC50 values) NCI-H82. Here is the method:
as §1

Experiment [5] has as its system HL-60. The following applies: Homo sapiens; HL-60 cells, 96 h incubation; read-out: Cell inhibitory activity (IC50 values) HL-60. The method, then: as §1

On to `CNCCOCCC1(c2ccc(NC(=O)NCc3ccc4c(c3)CN(C3CCC(=O)NC3=O)C4=O)cc2Cl)CCCCC1` (stereo not shown) [Compound B51], for which the IC50 (as a rule, the concentration that inhibits the measured activity by half) in experiment [1] is 0.01 to 0.05 µM; in experiment [2], 0.05 to 0.1 µM; in experiment [3], 0.05 to 0.1 µM; in experiment [4] it was more than 0.1 µM; in experiment [5], 0.01 to 0.05 µM.

As to `O=C1CCC(N2Cc3cc(CNC(=O)Nc4ccc(CCOCCNC5CCCCC5)c(Cl)c4)ccc3C2=O)C(=O)N1` (stereo not shown) [Compound B46], the IC50 in experiment [1] is 0.01 to 0.05 µM; in experiment [2], 0.05 to 0.1 µM; in experiment [3], 0.05 to 0.1 µM; in experiment [4], more than 0.1 µM; in experiment [5], less than 0.01 µM.

Take `CC1(OCCCc2ccc(NC(=O)NCc3ccc4c(c3)CN(C3CCC(=O)NC3=O)C4=O)cc2Cl)CCNCC1` (stereo not shown) [Compound B66]: the IC50 in experiment [1] is less than 0.01 µM; in experiment [2], less than 0.01 µM; in experiment [3] it was less than 0.01 µM; in experiment [4] it was 0.01 to 0.05 µM; in experiment [5], less than 0.01 µM.

Regarding `CNCC1(COCCc2ccc(NC(=O)NCc3ccc4c(c3)CN(C3CCC(=O)NC3=O)C4=O)cc2Cl)CCCCC1` (stereo not shown) [Compound B45], the IC50 is less than 0.01 µM in experiment [1]; less than 0.01 µM in experiment [2]; less than 0.01 µM in experiment [3]; 0.01 to 0.05 µM in experiment [4]; less than 0.01 µM in experiment [5].

Turning to `O=C1CCC(N2Cc3cc(CNC(=O)Nc4ccc(COC5CCCNC5)c(Cl)c4)ccc3C2=O)C(=O)N1` (stereo not shown) [Compound B7], the 50% inhibitory concentration (IC50) in experiment [1], in experiment [2], in experiment [3], in experiment [4] and in experiment [5] was 0.01 to 0.05 µM in each case.

For the molecule `O=C1CCC(N2Cc3cc(CNC(=O)Nc4ccc(CCCCOC5CCCNC5)c(Cl)c4)ccc3C2=O)C(=O)N1` (stereo not shown) [Compound B25], the IC50 was less than 0.01 µM in experiment [1]; less than 0.01 µM in experiment [2]; less than 0.01 µM in experiment [3]; 0.01 to 0.05 µM in experiment [4]; less than 0.01 µM in experiment [5].

For `O=C1CCC(N2Cc3cc(CNC(=O)Nc4ccc(CCOCC5CCCNC5)c(Cl)c4)ccc3C2=O)C(=O)N1` (stereo not shown) [Compound B14], the IC50 in experiment [1] is less than 0.01 µM; in experiment [2], less than 0.01 µM; in experiment [3], 0.01 to 0.05 µM; in experiment [4], 0.01 to 0.05 µM; in experiment [5], less than 0.01 µM.

`O=C1CCC(N2Cc3cc(CNC(=O)Nc4ccc(CCCOC5CC6(CNC6)C5)c(Cl)c4)ccc3C2=O)C(=O)N1` (stereo not shown) [Compound B68]: the IC50 in experiment [1] is less than 0.01 µM; in experiment [2], less than 0.01 µM; in experiment [3] it was less than 0.01 µM; in experiment [4] it was 0.01 to 0.05 µM; in experiment [5], less than 0.01 µM.

`O=C1CCC(N2Cc3cc(CNC(=O)Nc4ccc(CCCOCC5CCCNC5)c(Cl)c4)ccc3C2=O)C(=O)N1` (stereo not shown) [Compound B20]: the IC50 in experiment [1] is less than 0.01 µM; in experiment [2], less than 0.01 µM; in experiment [3], less than 0.01 µM; in experiment [4], 0.01 to 0.05 µM; in experiment [5], less than 0.01 µM.

On to `O=C1CCC(N2Cc3cc(CNC(=O)Nc4ccc(CCCOCCC5CCCNC5)c(Cl)c4)ccc3C2=O)C(=O)N1` (stereo not shown) [Compound B21], for which the IC50 is 0.01 to 0.05 µM in experiment [1]; 0.01 to 0.05 µM in experiment [2]; 0.01 to 0.05 µM in experiment [3]; more than 0.1 µM in experiment [4]; less than 0.01 µM in experiment [5].

`CNC1CCCC(OCCc2ccc(NC(=O)NCc3ccc4c(c3)CN(C3CCC(=O)NC3=O)C4=O)cc2Cl)C1` (stereo not shown) [Compound B43]: the IC50 was less than 0.01 µM in experiment [1]; less than 0.01 µM in experiment [2]; less than 0.01 µM in experiment [3]; 0.01 to 0.05 µM in experiment [4]; less than 0.01 µM in experiment [5].

Consider `O=C1CCC(N2Cc3cc(CNC(=O)Nc4ccc(CCCOC5CCNC5)c(Cl)c4)ccc3C2=O)C(=O)N1` (stereo not shown) [Compound B64], for which the IC50 in experiment [1] was less than 0.01 µM; in experiment [2], less than 0.01 µM; in experiment [3], less than 0.01 µM; in experiment [4], 0.01 to 0.05 µM; in experiment [5] it was less than 0.01 µM.

For `O=C1CCC(N2Cc3cc(CNC(=O)Nc4ccc(CCOC5CCCNC5)c(Cl)c4)ccc3C2=O)C(=O)N1` (stereo not shown) [Compound B13], the IC50 is less than 0.01 µM in experiment [1]; 0.01 to 0.05 µM in experiment [2]; 0.01 to 0.05 µM in experiment [3]; 0.01 to 0.05 µM in experiment [4]; less than 0.01 µM in experiment [5].

As to `O=C1CCC(N2Cc3cc(CNC(=O)Nc4ccc(CCOCCNC5CCOCC5)c(Cl)c4)ccc3C2=O)C(=O)N1` (stereo not shown) [Compound B48], the half-inhibitory concentration (IC50) in experiment [1] is 0.01 to 0.05 µM; in experiment [2], 0.05 to 0.1 µM; in experiment [3], 0.05 to 0.1 µM; in experiment [4], more than 0.1 µM; in experiment [5] it was less than 0.01 µM.

Consider `O=C1CCC(N2Cc3cc(CNC(=O)Nc4ccc(CCOCC5CNCCO5)c(Cl)c4)ccc3C2=O)C(=O)N1` (stereo not shown) [Compound B53], for which the IC50 is less than 0.01 µM in experiment [1]; less than 0.01 µM in experiment [2]; less than 0.01 µM in experiment [3]; 0.01 to 0.05 µM in experiment [4]; less than 0.01 µM in experiment [5].

Take `O=C1CCC(N2Cc3cc(CNC(=O)Nc4ccc(CCCOC5CCNCC56CC6)c(Cl)c4)ccc3C2=O)C(=O)N1` (stereo not shown) [Compound B72]: the IC50 was less than 0.01 µM in experiment [1]; 0.01 to 0.05 µM in experiment [2]; 0.01 to 0.05 µM in experiment [3]; 0.01 to 0.05 µM in experiment [4]; less than 0.01 µM in experiment [5].

As for `O=C1CCC(N2Cc3cc(CNC(=O)Nc4ccc(CCOCCNC5CC5)c(Cl)c4)ccc3C2=O)C(=O)N1` (stereo not shown) [Compound B47], the IC50 in experiment [1] was 0.01 to 0.05 µM; in experiment [2], more than 0.1 µM; in experiment [3], more than 0.1 µM; in experiment [4] it was more than 0.1 µM; in experiment [5], 0.01 to 0.05 µM.

On to `O=C1CCC(N2Cc3cc(CNC(=O)Nc4ccc(CCOCCC5CCCNC5)c(Cl)c4)ccc3C2=O)C(=O)N1` (stereo not shown) [Compound B15], for which the IC50 in experiment [1] was 0.01 to 0.05 µM; in experiment [2], 0.01 to 0.05 µM; in experiment [3], 0.01 to 0.05 µM; in experiment [4], more than 0.1 µM; in experiment [5] it was less than 0.01 µM.

For the molecule `CNCC1CCCC(OCCc2ccc(NC(=O)NCc3ccc4c(c3)CN(C3CCC(=O)NC3=O)C4=O)cc2Cl)C1` (stereo not shown) [Compound B54], the IC50 in experiment [1] was less than 0.01 µM; in experiment [2], 0.01 to 0.05 µM; in experiment [3] it was 0.01 to 0.05 µM; in experiment [4] it was 0.01 to 0.05 µM; in experiment [5], less than 0.01 µM.

For `O=C1CCC(N2Cc3cc(CNC(=O)Nc4ccc(COCCCC5CCCNC5)c(Cl)c4)ccc3C2=O)C(=O)N1` (stereo not shown) [Compound B10], the IC50 was less than 0.01 µM in experiment [1]; 0.01 to 0.05 µM in experiment [2]; 0.01 to 0.05 µM in experiment [3]; more than 0.1 µM in experiment [4]; 0.01 to 0.05 µM in experiment [5].

`O=C1CCC(N2Cc3cc(CNC(=O)Nc4ccc(CCCOC5CNCC6CCCCC65)c(Cl)c4)ccc3C2=O)C(=O)N1` (stereo not shown) [Compound B70]: the IC50 in experiment [1] is less than 0.01 µM; in experiment [2], 0.01 to 0.05 µM; in experiment [3], 0.01 to 0.05 µM; in experiment [4], 0.01 to 0.05 µM; in experiment [5], less than 0.01 µM.

As to `O=C1CCC(N2Cc3cc(CNC(=O)Nc4ccc(CCCOCC5CCCN5)c(Cl)c4)ccc3C2=O)C(=O)N1` (stereo not shown) [Compound B65], the IC50 in experiment [1] is less than 0.01 µM; in experiment [2] it was less than 0.01 µM; in experiment [3], less than 0.01 µM; in experiment [4] it was 0.01 to 0.05 µM; in experiment [5], less than 0.01 µM.

With `O=C1CCC(N2Cc3cc(CNC(=O)Nc4ccc(CCCOC5CCNC6CC65)c(Cl)c4)ccc3C2=O)C(=O)N1` (stereo not shown) [Compound B71], the IC50 is less than 0.01 µM in experiment [1]; less than 0.01 µM in experiment [2]; less than 0.01 µM in experiment [3]; 0.01 to 0.05 µM in experiment [4]; less than 0.01 µM in experiment [5].

Regarding `CC1(OCCCc2ccc(NC(=O)NCc3ccc4c(c3)CN(C3CCC(=O)NC3=O)C4=O)cc2Cl)CCCNC1` (stereo not shown) [Compound B67], the IC50 in experiment [1] was less than 0.01 µM; in experiment [2] it was less than 0.01 µM; in experiment [3], less than 0.01 µM; in experiment [4] it was 0.01 to 0.05 µM; in experiment [5], less than 0.01 µM.

In the case of `O=C1CCC(N2Cc3cc(CNC(=O)Nc4ccc(COCC5CCCNC5)c(Cl)c4)ccc3C2=O)C(=O)N1` (stereo not shown) [Compound B8], the IC50 in experiment [1], in experiment [2], in experiment [3], in experiment [4] and in experiment [5] was 0.01 to 0.05 µM throughout.

With `CNC1COCC(OCCc2ccc(NC(=O)NCc3ccc4c(c3)CN(C3CCC(=O)NC3=O)C4=O)cc2Cl)C1` (stereo not shown) [Compound B44], the concentration for half-maximal inhibition (IC50) in experiment [1] is less than 0.01 µM; in experiment [2] it was less than 0.01 µM; in experiment [3], less than 0.01 µM; in experiment [4] it was 0.01 to 0.05 µM; in experiment [5], less than 0.01 µM.
